Patent US8741897B2, “Glucocorticoid mimetics, methods of making them, pharmaceutical compositions and uses thereof” (Boehringer Ingelheim Pharmaceuticals Inc., priority 2003, dated 2014)

How the values were obtained:
[1] = target: T1, human glucocorticoid receptor (GR) complex (Homo sapiens, UniProt P04150); assay: Glucocorticoid receptor competitive binding assay (fluorescence polarization, TAMRA-labeled dexamethasone probe); details: compounds of Formula (IA)
T1 construct: made in house; host or cells: insect expression system (baculovirus lysate)
T1 sequence (P04150 1-777): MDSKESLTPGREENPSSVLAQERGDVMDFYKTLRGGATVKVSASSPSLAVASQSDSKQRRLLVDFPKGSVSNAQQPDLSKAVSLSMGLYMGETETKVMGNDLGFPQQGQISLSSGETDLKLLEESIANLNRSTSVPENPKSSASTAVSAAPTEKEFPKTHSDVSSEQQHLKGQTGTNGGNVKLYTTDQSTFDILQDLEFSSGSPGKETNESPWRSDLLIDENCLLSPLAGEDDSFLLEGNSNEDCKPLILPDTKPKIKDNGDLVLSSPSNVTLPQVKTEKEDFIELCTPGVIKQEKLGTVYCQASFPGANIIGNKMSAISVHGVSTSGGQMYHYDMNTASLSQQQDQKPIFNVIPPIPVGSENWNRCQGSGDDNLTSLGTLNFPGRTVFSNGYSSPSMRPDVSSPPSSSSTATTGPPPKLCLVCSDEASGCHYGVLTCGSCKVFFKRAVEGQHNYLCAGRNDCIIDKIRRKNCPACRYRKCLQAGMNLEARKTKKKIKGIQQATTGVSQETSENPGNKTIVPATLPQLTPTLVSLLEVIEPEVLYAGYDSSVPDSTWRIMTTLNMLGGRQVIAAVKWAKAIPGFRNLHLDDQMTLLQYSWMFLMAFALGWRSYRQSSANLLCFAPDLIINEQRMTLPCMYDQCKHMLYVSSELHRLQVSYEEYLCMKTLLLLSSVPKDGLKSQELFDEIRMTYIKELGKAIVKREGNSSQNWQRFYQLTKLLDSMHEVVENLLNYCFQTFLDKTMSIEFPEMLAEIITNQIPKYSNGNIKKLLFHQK
Method: Compounds of the invention were evaluated for binding to the steroid receptor by a fluorescence polarization competitive binding assay. Detailed descriptions for preparation of recombinant glucocorticoid receptor (GR) complex used in the assay is described in U.S. patent application Pub.
A. Glucocorticoid Receptor Competitive Binding Assay
Step 1. Characterization of the Fluorescent Probe
The wavelengths for maximum excitation and emission of the fluorescent probe should first be measured. An example of such a probe is rhodamine (TAMRA)-labeled dexamethasone.
The affinity of the probe for the steroid receptor was then determined in a titration experiment. The fluorescence polarization value of the probe in assay buffer was measured on an SLM-8100 fluorometer using the excitation and emission maximum values described above. Aliquots of expression vector lysate were added and fluorescence polarization was measured after each addition until no further change in polarization value was observed. Non-linear least squares regression analysis was used to calculate the dissociation constant of the probe from the polarization values obtained for lysate binding to the probe.
Step 2. Screening for Inhibitors of Probe Binding
This assay uses fluorescence polarization (FP) to quantitate the ability of test compounds to compete with tetramethyl rhodamine (TAMRA)-labeled dexamethasone for binding to a human glucocorticoid receptor (GR) complex prepared from an insect expression system. The assay buffer was: 10 mM TES, 50 mM KCl, 20 mM Na2MoO4.2H2O, 1.5 mM EDTA, 0.04% w/v CHAPS, 10% v/v glycerol, 1 mM dithiothreitol, pH 7.4. Test compounds were dissolved to 1 mM in neat DMSO and then further diluted to 10× assay concentration in assay buffer supplemented with 10% v/v DMSO. Test compounds were serially diluted at 10× assay concentrations in 10% DMSO-containing buffer in 96-well polypropylene plates. Binding reaction mixtures were prepared in 96-well black Dynex microtiter plates by sequential addition of the following assay components to each well: 15 μL of 10× test compound solution, 85 μL of GR-containing baculovirus lysate diluted 1:170 in assay buffer, and 50 μL of 15 nM TAMRA-labeled dexamethasone. Positive controls were reaction mixtures containing no test compound; negative controls (blanks) were reaction mixtures containing 0.7 μM to 2 μM dexamethasone. […] IC50 values were determined by iterative non-linear curve fitting of the FP signal data to a 4-parameter logistic equation.

[2] = system: glucocorticoid receptor function; assay: one or more of the above assays (GR binding and glucocorticoid receptor cell assays: aromatase, IL-6, TAT, MMTV-Luc, IL-8, ICAM-Luc); type: cell-based; details: assay not specified per compound

SMILES | activity in the GR binding assay [1] | activity as agonists of the glucocorticoid receptor function in one or more of the above assays [2]
COc1ccc(F)cc1C(C)(C)CC(O)(Cc1cc2cc(C(=O)NCC(N)=O)ccc2[nH]1)C(F)(F)F (stereo not shown) [2-[4-(5-Fluoro-2-methoxyphenyl)-2-hydroxy-4-methyl-2-trifluoromethylpentyl]-1H-indole-5-carboxylic acid carbamoylmethylamide] | potent activity | potent agonists
Cc1ccc(C)c(C(C)(C)CC(O)(Cc2ccnc3ccccc23)C(F)(F)F)c1 (stereo not shown) [4-(2,5-Dimethylphenyl)-1,1,1-trifluoro-4-methyl-2-quinolin-4-ylmethylpentan-2-ol] | potent activity | potent agonists
COc1cc2cc(CC(O)(CC(C)(C)c3cc(F)ccc3OC)C(F)(F)F)[nH]c2cn1 (stereo not shown) [1,1,1-Trifluoro-4-(5-fluoro-2-methoxyphenyl)-2-(5-methoxy-1H-pyrrolo[2,3-c]pyridin-2-ylmethyl)-4-methylpentan-2-ol] | potent activity | potent agonists
COc1ccc(F)cc1C(C)(C)CC(O)(Cc1cc2ccc(C#N)cc2[nH]1)C(F)(F)F (stereo not shown) [2-[4-(5-Fluoro-2-methoxyphenyl)-2-hydroxy-4-methyl-2-trifluoromethylpentyl]-1H-indole-6-carbonitrile] | potent activity | potent agonists
Cc1cc2[nH]c(CC(O)(CC(C)(C)c3cc(F)ccc3C)C(F)(F)F)cc2c(C)n1 (stereo not shown) [2-(4,6-Dimethyl-1H-pyrrolo[3,2-c]pyridin-2-ylmethyl)-1,1,1-trifluoro-4-(5-fluoro-2-methylphenyl)-4-methylpentan-2-ol] | potent activity | potent agonists
Cc1cccc(C(C)(C)CC(O)(Cc2ccnc3ccccc23)C(F)(F)F)c1 (stereo not shown) [1,1,1-Trifluoro-4-methyl-2-quinolin-4-ylmethyl-4-m-tolylpentan-2-ol] | potent activity | potent agonists
COc1ccc(C)cc1C(C)(C)CC(O)(Cc1cc2ccccc2[nH]1)C(F)(F)F (stereo not shown) [1,1,1-Trifluoro-2-(1H-indol-2-ylmethyl)-4-(2-methoxy-5-methylphenyl)-4-methylpentan-2-ol] | potent activity | potent agonists
Cc1ccc(F)cc1C(C)(C)CC(O)(Cc1cc2cc(Cl)ncc2[nH]1)C(F)(F)F (stereo not shown) [2-(5-Chloro-1H-pyrrolo[2,3-c]pyridin-2-ylmethyl)-1,1,1-trifluoro-4-(5-fluoro-2-methylphenyl)-4-methylpentan-2-ol] | potent activity | potent agonists
Cc1cc(CC(O)(CC(C)(C)c2cccc3c2OCC3)C(F)(F)F)cc(C)n1 (stereo not shown) [4-(2,3-Dihydrobenzofuran-7-yl)-2-(2,6-dimethylpyridin-4-ylmethyl)-1,1,1-trifluoro-4-methylpentan-2-ol] | potent activity | potent agonists
Cc1ccc(F)cc1C(C)(C)CC(O)(Cc1ccnc2ccccc12)C(F)(F)F (stereo not shown) [1,1,1-Trifluoro-4-(5-fluoro-2-methylphenyl)-4-methyl-2-quinolin-4-ylmethylpentan-2-ol] | potent activity | potent agonists
COc1cc(F)ccc1C(C)(C)CC(O)(Cc1cc2c(C)ccc(F)c2[nH]1)C(F)(F)F (stereo not shown) [1,1,1-Trifluoro-4-(4-fluoro-2-methoxyphenyl)-2-(7-fluoro-4-methyl-1H-indol-2-ylmethyl)-4-methylpentan-2-ol] | potent activity | potent agonists
COc1ccc(F)cc1C(C)(C)CC(O)(Cc1cc(Cl)nc(Cl)c1C#N)C(F)(F)F (stereo not shown) [2,6-Dichloro-4-[4-(5-fluoro-2-methoxyphenyl)-2-hydroxy-4-methyl-2-trifluoromethylpentyl]nicotinonitrile] | potent activity | potent agonists
Cc1ccc(F)cc1C(C)(C)CC(O)(Cn1ccc2ncccc21)C(F)(F)F (stereo not shown) [1,1,1-Trifluoro-4-(5-fluoro-2-methylphenyl)-4-methyl-2-pyrrolo[3,2-b]pyridin-1-ylmethylpentan-2-ol] | potent activity | potent agonists
COc1ccc(F)cc1C(C)(C)CC(O)(Cc1cc2nc(C#N)ccc2[nH]1)C(F)(F)F (stereo not shown) [2-[4-(5-Fluoro-2-methoxyphenyl)-2-hydroxy-4-methyl-2-trifluoromethylpentyl]-1H-pyrrolo[3,2-b]pyridine-5-carbonitrile] | potent activity | potent agonists
Cc1cccc(C(C)(C)CC(O)(Cc2cc(C)nc(C)c2)C(F)(F)F)c1 (stereo not shown) [2-(2,6-Dimethylpyridin-4-ylmethyl)-1,1,1-trifluoro-4-methyl-4-m-tolylpentan-2-ol] | potent activity | potent agonists
COc1ccc(F)cc1C(C)(C)CC(O)(Cc1cc(C)nc2ccccc12)C(F)(F)F (stereo not shown) [1,1,1-Trifluoro-4-(5-fluoro-2-methoxyphenyl)-4-methyl-2-(2-methylquinolin-4-ylmethyl)pentan-2-ol] | potent activity | potent agonists
Cc1ccc(F)cc1C(C)(C)CC(O)(Cc1[nH]c2cnccc2c1C)C(F)(F)F (stereo not shown) [1,1,1-Trifluoro-4-(5-fluoro-2-methylphenyl)-4-methyl-2-(3-methyl-1H-pyrrolo[2,3-c]pyridin-2-ylmethyl)pentan-2-ol] | potent activity | potent agonists
COc1ccc(F)cc1C(C)(C)CC(O)(Cc1cc2c(C)nc(C)nc2[nH]1)C(F)(F)F (stereo not shown) [2-(2,4-Dimethyl-7H-pyrrolo[2,3-d]pyrimidin-6-ylmethyl)-1,1,1-trifluoro-4-(5-fluoro-2-methoxyphenyl)-4-methylpentan-2-ol] | potent activity | potent agonists
CC(C)(CC(O)(Cc1cc2ccccc2[nH]1)C(F)(F)F)c1cccc(Br)c1 (stereo not shown) [4-(3-Bromophenyl)-1,1,1-trifluoro-2-(1H-indol-2-ylmethyl)-4-methylpentan-2-ol] | potent activity | potent agonists
COc1ccc(F)cc1C(C)(C)CC(O)(Cc1cc2nc(C)ncc2[nH]1)C(F)(F)F (stereo not shown) [1,1,1-Trifluoro-4-(5-fluoro-2-methoxyphenyl)-4-methyl-2-(2-methyl-5H-pyrrolo[3 ,2-d]pyrimidin-6-ylmethyl)pentan-2-ol] | potent activity | –
COc1ccc(F)cc1C(C)(C)CC(O)(Cc1cc2cc(C(=O)N3CCC(=O)CC3)ccc2[nH]1)C(F)(F)F (stereo not shown) [1-{2-[4-(5-Fluoro-2-methoxyphenyl)-2-hydroxy-4-methyl-2-trifluoromethylpentyl]-1H-indole-5-carbonyl}piperidin-4-one] | potent activity | –
